Assay results: PubChem BioAssay AID1259407 (Chemical Carcinogenesis Research Information System (CCRIS), 2018)
The source made the active and inactive calls. The rule behind the calls is not given here.

Tested on: CCRIS mutagenicity, Ames/micronucleus/aberration tests
Test: CCRIS mutagenicity studies
Settings: Test System: AMES SALMONELLA TYPHIMURIUM, Method: STANDARD PLATE

Measured: mutagenic call

Cc1ccc(N=Nc2c(O)c(C(=O)O)cc3ccccc23)c(S(=O)(=O)O)c1
inactive: Strain/Indicator: TA98, Metabolic Activation: NONE inactive; negative | Strain/Indicator: TA98, Metabolic Activation: RAT LIVER S-9, AROCLOR 1254 inactive; negative | Strain/Indicator: TA100, Metabolic Activation: NONE inactive; negative | Strain/Indicator: TA100, Metabolic Activation: RAT LIVER S-9, AROCLOR 1254 inactive; negative
